Reference: PubChem BioAssay (NCI)
“And” between values parts separate entries of the source, which are not always exact repeats. Equal entries are not always repeated.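 Exposure lasted 48 hours, with cells grown in 96-well plates and compounds tested at five concentrations. At the GI50, growth is halved. TGI is the concentration that stops growth completely.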

Assays:
Test in all cases: growth of human tumour cells (NCI), 48 h
[1] = system: RPMI-8226 leukemia
[2] = system: SNB-19 CNS
[3] = system: OVCAR-4 ovarian
[4] = system: 786-0 renal
[5] = system: PC-3 prostate
[6] = system: SK-OV-3 ovarian
[7] = system: RXF 393 renal
[8] = system: DU-145 prostate
[9] = system: EKVX NSCLC
[10] = system: HL-60(TB) leukemia
[11] = system: NCI-H23 lung
[12] = system: UACC-62 melanoma
[13] = system: COLO 205 colon
[14] = system: SK-MEL-2 melanoma
[15] = system: NCI-H460 lung

SMILES: O=C1CC(c2cccc(Cl)c2)Nc2ccc(N3CCCC3)cc21 (centres undefined)
- TGI [1]: 0.0171 µM
- TGI [2]: > 100 µM
- GI50 [3]: 18.6 µM
- TGI [3]: > 100 µM
- TGI [4]: > 100 µM
- TGI [5]: > 100 µM
- TGI [6]: > 100 µM
- TGI [7]: 0.0845 µM
- TGI [8]: 2.25 µM and 13.6 µM
- TGI [9]: > 100 µM

SMILES: COC(=O)[C@@H]1CO[C@H](C(C)(C)C)N1C(=O)N1C=CC(=O)C[C@H]1C
- TGI [10]: > 100 µM
- TGI [11]: > 100 µM
- TGI [1]: > 100 µM
- TGI [4]: > 100 µM
- TGI [5]: > 100 µM
- TGI [6]: > 100 µM
- TGI [7]: > 100 µM
- TGI [8]: > 100 µM
- TGI [12]: > 100 µM
- TGI [13]: > 100 µM
- TGI [9]: > 100 µM
- TGI [14]: > 100 µM

SMILES: COc1cc(C2c3cc4c(cc3OC(NN)C2C)OCO4)cc(OC)c1O (centres undefined)
- TGI [10]: 5.32 µM
- TGI [11]: > 100 µM
- TGI [1]: 17.8 µM
- TGI [2]: > 100 µM
- TGI [3]: > 100 µM
- TGI [4]: > 100 µM
- TGI [5]: > 100 µM
- TGI [7]: > 100 µM
- TGI [8]: > 100 µM
- TGI [12]: 18.9 µM
- TGI [13]: 40.4 µM
- TGI [14]: 13.1 µM

SMILES: COC(=O)/C=C/c1ccc(OP(=O)(O)O)c(OC)c1
- TGI [11]: > 100 µM
- TGI [1]: > 100 µM
- TGI [2]: > 100 µM
- TGI [3]: > 100 µM
- TGI [4]: > 100 µM
- TGI [5]: > 100 µM
- TGI [6]: > 100 µM
- TGI [7]: > 100 µM
- TGI [8]: > 100 µM
- TGI [12]: > 100 µM
- TGI [13]: > 100 µM
- TGI [15]: > 100 µM
- TGI [9]: > 100 µM
- TGI [14]: > 100 µM

SMILES: CCOC(=O)c1cn(CC)c(=O)n2c1nc1ccccc12
- TGI [11]: > 100 µM
- TGI [1]: 75.1 µM
- TGI [2]: > 100 µM
- TGI [3]: > 100 µM
- TGI [4]: > 100 µM
- TGI [5]: > 100 µM
- TGI [7]: > 100 µM
- TGI [8]: > 100 µM
- TGI [12]: > 100 µM
- TGI [13]: > 100 µM
- TGI [15]: > 100 µM
- TGI [9]: > 100 µM
- TGI [14]: > 100 µM

SMILES: COc1ccc2nc3cc(Cl)ccc3c(NC(C)CCCN(CCCl)CCCl)c2c1 (centres undefined)
- TGI [10]: 0.94 µM
- TGI [11]: 2.89 µM
- TGI [1]: 2.93 µM
- TGI [2]: 7.15 µM
- TGI [3]: 4.33 µM
- TGI [4]: 3.87 µM
- TGI [6]: 6.59 µM
- TGI [7]: 4.9 µM
- TGI [12]: 2.41 µM
- TGI [13]: 2.15 µM
- TGI [15]: 1.58 µM
- TGI [9]: 18.2 µM
- TGI [14]: 4.54 µM

SMILES: O=S(=O)(/N=C(\NO)Nc1ccc(Cl)cc1)c1cc(C(F)(F)F)cc(C(F)(F)F)c1
- TGI [10]: 79 µM
- TGI [11]: 36.6 µM
- TGI [2]: 31.5 µM
- TGI [3]: 31.6 µM
- TGI [4]: 33.4 µM
- TGI [5]: 31.5 µM
- TGI [6]: 35.2 µM
- TGI [7]: 41 µM
- TGI [8]: 44.1 µM
- TGI [12]: 30.7 µM
- TGI [13]: 35.5 µM
- TGI [15]: 73.6 µM
- TGI [9]: 30.6 µM
- TGI [14]: 32.7 µM

SMILES: CC(C)(CN1CCCCC1)C(=O)/C=C/c1ccc(Br)cc1
- TGI [10]: 5.83 µM
- TGI [11]: 9.11 µM
- TGI [1]: > 27.1 µM
- TGI [2]: 4.75 µM
- TGI [3]: 19.3 µM
- TGI [4]: 4.72 µM
- TGI [6]: 8.18 µM
- TGI [7]: 4.48 µM
- TGI [12]: > 22.9 µM
- TGI [13]: 5.56 µM
- TGI [15]: > 20.4 µM
- TGI [9]: 9.13 µM
- TGI [14]: 9.04 µM

SMILES: Cn1c(CNc2ccc(-c3n[nH]c(=S)n3C)cc2)n[nH]c1=S
- TGI [10]: > 100 µM
- TGI [11]: > 100 µM
- TGI [2]: > 100 µM
- TGI [3]: > 100 µM
- TGI [4]: > 100 µM
- TGI [5]: > 100 µM
- TGI [6]: > 100 µM
- TGI [8]: > 100 µM
- TGI [13]: > 100 µM
- TGI [15]: > 100 µM
- TGI [9]: > 100 µM
- TGI [14]: > 100 µM

SMILES: c1cc(-c2ccc(-c3ccsc3)s2)cs1
- TGI [10]: 67 µM
- TGI [11]: 61 µM
- TGI [1]: > 100 µM
- TGI [3]: 57.5 µM
- TGI [4]: > 100 µM
- TGI [6]: > 100 µM
- TGI [7]: > 100 µM
- TGI [8]: > 100 µM
- TGI [12]: > 100 µM
- TGI [13]: > 100 µM
- TGI [15]: > 100 µM
- TGI [9]: > 100 µM

SMILES: O=C1c2ccccc2C(=O)c2[nH]cnc21
- TGI [10]: > 100 µM
- TGI [11]: > 100 µM
- TGI [2]: > 100 µM
- TGI [3]: > 100 µM
- TGI [4]: > 100 µM
- TGI [7]: > 100 µM
- TGI [12]: 82.2 µM
- TGI [15]: > 100 µM
- TGI [9]: > 100 µM
- TGI [14]: > 100 µM

SMILES: CC1(C)O[C@@H]2[C@@H](COC(C)(C)O[C@H]2C2SCCCS2)O1
- TGI [11]: > 100 µM
- TGI [1]: > 100 µM
- TGI [2]: > 100 µM
- TGI [3]: > 100 µM
- TGI [4]: > 100 µM
- TGI [5]: > 100 µM
- TGI [6]: > 100 µM
- TGI [7]: > 100 µM
- TGI [8]: > 100 µM
- TGI [12]: > 100 µM
- TGI [13]: > 100 µM
- TGI [15]: > 100 µM
- TGI [14]: > 100 µM

SMILES: NNc1nnc(CCCCCCCCc2nnc(NN)n2N)n1N
- TGI [10]: > 100 µM
- TGI [11]: > 100 µM
- TGI [2]: > 100 µM
- TGI [3]: > 100 µM
- TGI [4]: > 100 µM
- TGI [5]: > 100 µM
- TGI [6]: > 100 µM
- TGI [7]: > 100 µM
- TGI [8]: > 100 µM
- TGI [13]: > 100 µM
- TGI [15]: > 100 µM
- TGI [9]: > 100 µM
- TGI [14]: > 100 µM

SMILES: CC(=O)NC1C(OCC(=O)NCCNc2ccc([N+](=O)[O-])c3[nH]c4ccccc4c(=O)c23)C(O)C(CO)OC1(C)OCc1ccccc1 (centres undefined)
- TGI [11]: > 100 µM
- TGI [1]: > 100 µM
- TGI [2]: > 100 µM
- TGI [3]: > 100 µM
- TGI [4]: > 100 µM
- TGI [5]: > 100 µM
- TGI [6]: > 100 µM
- TGI [7]: > 100 µM
- TGI [8]: > 100 µM
- TGI [12]: > 100 µM
- TGI [13]: > 100 µM
- TGI [15]: > 100 µM
- TGI [9]: > 100 µM
- TGI [14]: > 100 µM

SMILES: N#Cc1sc2nc3ccccc3n2c1N
- TGI [11]: > 100 µM
- TGI [1]: > 100 µM
- TGI [2]: > 100 µM
- TGI [3]: > 100 µM
- TGI [4]: > 100 µM
- TGI [5]: > 100 µM
- TGI [6]: > 100 µM
- TGI [7]: 67.6 µM
- TGI [8]: > 100 µM
- TGI [12]: > 100 µM
- TGI [13]: > 100 µM
- TGI [9]: > 100 µM
- TGI [14]: 81.7 µM

SMILES: O=C(CCc1cc(O)cc(O)c1)NCCc1cc(O)cc(OCc2ccccc2)c1
- TGI [11]: > 100 µM
- TGI [1]: 90.5 µM
- TGI [2]: > 100 µM
- TGI [4]: > 100 µM
- TGI [5]: > 100 µM
- TGI [6]: > 100 µM
- TGI [7]: > 100 µM
- TGI [8]: > 100 µM
- TGI [12]: > 100 µM
- TGI [13]: > 100 µM
- TGI [15]: 47.3 µM
- TGI [9]: > 100 µM
- TGI [14]: > 100 µM

SMILES: CSC(=O)/C=C1\SS/C(=C\C(=O)SC)S1
- TGI [11]: 27.6 µM
- TGI [1]: 5.27 µM
- TGI [2]: 20.7 µM
- TGI [3]: > 41.2 µM
- TGI [4]: 4.03 µM
- TGI [5]: 9.32 µM
- TGI [7]: 2.8 µM
- TGI [8]: 15.7 µM
- TGI [12]: 2.87 µM
- TGI [13]: 30.6 µM
- TGI [15]: 7.61 µM
- TGI [9]: 6.68 µM
- TGI [14]: 4.93 µM
